Each structure is given as a SMILES string.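 Tested at 5 concentrations; 48 h exposure; 96-well plates; endpoints linearly interpolated, else capped at highest concentration. GI50: concentration for 50% inhibition of growth. TGI: total growth inhibition.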 Some results are limits rather than exact numbers.

Among the test systems are SK-MEL-5 melanoma; COLO 205 colon; SF-539 CNS; NCI-H226 lung; K-562 leukemia; SK-OV-3 ovarian; HT29 colon; HOP-62 NSCLC; M14 melanoma; MDA-MB-231 breast.
What all share (assay): growth of human tumour cells (NCI), 48 h

For the compound `O=c1cc2n(c(=O)[nH]1)C1OC(C(O)C1O)[C@H]2CCO` (stereo partly specified), the TGI in the test on SK-MEL-5 melanoma, with COLO 205 colon, in the test on SF-539 CNS, in the test with NCI-H226 lung, with K-562 leukemia and with SK-OV-3 ovarian was above 100 µM each time. Besides, the TGI in the test with HT29 colon and with HOP-62 NSCLC was above 100 µM each time.
Regarding `COCC1C(=O)c2cc3c(cc2C12C=CC1(C=C2)OCCO1)OCO3` (stereo unspecified), the TGI was 38 µM with COLO 205 colon; 29.3 µM in the test on SF-539 CNS; 22.8 µM in the test with NCI-H226 lung; 12.6 µM in the test on M14 melanoma; 11.2 µM in the test with K-562 leukemia; 29.7 µM in the test on SK-OV-3 ovarian. Further, the TGI is 15 µM in the test with HT29 colon and 36.2 µM in the test on HOP-62 NSCLC.
In the case of `CC(=O)Oc1ccc2ccc(=O)oc2c1OC(C)=O`, the TGI with SK-MEL-5 melanoma was 94.2 µM; with COLO 205 colon, 63.1 µM; in the test on SF-539 CNS it was above 100 µM; in the test with M14 melanoma, above 100 µM; in the test on MDA-MB-231 breast it was above 100 µM; in the test with K-562 leukemia, above 100 µM. Further, the TGI in the test with SK-OV-3 ovarian, in the test on HT29 colon and in the test with HOP-62 NSCLC was above 100 µM throughout.
As for `Nc1nc(=O)n(C2CC(O)C(O)C(CO)O2)cc1F` (stereo unspecified), the TGI in the test on COLO 205 colon, in the test on SF-539 CNS, in the test with NCI-H226 lung, with M14 melanoma, in the test on K-562 leukemia and in the test with HT29 colon was above 100 µM each time. Further, in the test on HOP-62 NSCLC, the TGI is above 100 µM.
As to `COC(=O)CCC(=O)CC(=O)C(=O)Nc1ccc(F)cc1`, the TGI in the test with SK-MEL-5 melanoma, in the test with COLO 205 colon, in the test on SF-539 CNS, with NCI-H226 lung, in the test with M14 melanoma and in the test with K-562 leukemia was above 100 µM each time. In addition, the TGI in the test with SK-OV-3 ovarian, in the test with HT29 colon and in the test with HOP-62 NSCLC was above 100 µM throughout.
On to `O=C(Nc1ccc(Cl)c(Cl)c1)C(=O)Nn1c(=S)[nH]c2ccccc2c1=O`, for which the TGI with SK-MEL-5 melanoma, with COLO 205 colon, in the test with SF-539 CNS, in the test on NCI-H226 lung, in the test with M14 melanoma and with K-562 leukemia was above 100 µM in each case. Moreover, the TGI in the test with SK-OV-3 ovarian, in the test on HT29 colon and in the test on HOP-62 NSCLC was above 100 µM each time.
For `O=C(CC1(O)C(=O)Nc2c(Cl)cccc21)c1ccccc1` (stereo unspecified), the TGI with SK-MEL-5 melanoma, with COLO 205 colon, with NCI-H226 lung, in the test with M14 melanoma, in the test on K-562 leukemia and in the test with SK-OV-3 ovarian was above 100 µM each time. Besides, the TGI with HT29 colon and with HOP-62 NSCLC was above 100 µM in each case.
Turning to `Cc1cc2cc(Cl)ccc2nc1C(=O)c1ccccc1`, the TGI with SK-MEL-5 melanoma, in the test on COLO 205 colon, with SF-539 CNS, in the test with NCI-H226 lung, with M14 melanoma and in the test on K-562 leukemia was above 100 µM throughout. For the same compound, the TGI in the test with HOP-62 NSCLC was above 100 µM.
As for `COc1ccc(CN2C(=O)C(Cc3cc(OC)c(OC)c(C)c3OC)N(C(=O)OC(C)C)C(=O)/C2=C/c2cc(OC)c(OC)c(C)c2OC)cc1` (stereo unspecified), the TGI with SK-MEL-5 melanoma, with COLO 205 colon, in the test on SF-539 CNS, in the test on NCI-H226 lung, in the test on M14 melanoma and with K-562 leukemia was above 100 µM each time. Also, the TGI with SK-OV-3 ovarian, in the test with HT29 colon and with HOP-62 NSCLC was above 100 µM each time.
With `Cc1cc2c(cc1C)N1Cc3c(ccc(C)c3C)N(C2)C1` (tested in a mixture with another compound), the TGI in the test with SK-MEL-5 melanoma, in the test on COLO 205 colon, with SF-539 CNS, in the test on NCI-H226 lung, with M14 melanoma and in the test on K-562 leukemia was above 100 µM throughout. Further, the TGI with SK-OV-3 ovarian, in the test with HT29 colon and with HOP-62 NSCLC was above 100 µM throughout.
On to `O=c1oc2c3ccc4ccccc4c3n(CCN3CCOCC3)c2c2ccccc12`, for which the TGI in the test on COLO 205 colon, in the test on SF-539 CNS, in the test on M14 melanoma, in the test with SK-OV-3 ovarian, in the test with HT29 colon and in the test with HOP-62 NSCLC was above 100 µM in each case.
In the case of `COc1ccc(C(=O)C(c2ccc(OC)cc2)C2C(=O)Oc3ccccc32)cc1` (stereo unspecified), the GI50 with SK-MEL-5 melanoma, with COLO 205 colon, in the test on SF-539 CNS, in the test on NCI-H226 lung, in the test with M14 melanoma and in the test on K-562 leukemia was above 100 µM each time. The GI50 in the test on SK-OV-3 ovarian and in the test on HT29 colon was above 100 µM throughout. Moreover, the TGI with SK-MEL-5 melanoma, in the test on COLO 205 colon, with SF-539 CNS, with NCI-H226 lung, in the test with M14 melanoma and in the test on K-562 leukemia was above 100 µM in each case. In addition, the TGI with SK-OV-3 ovarian and in the test with HT29 colon was above 100 µM in each case.
Turning to `Cc1cc(Cl)ccc1NC(=O)/C(Cl)=C(/Cl)C(=O)O`, the TGI with SK-MEL-5 melanoma was above 100 µM; in the test on COLO 205 colon it was 78 µM; in the test on SF-539 CNS it was 50.9 µM; with M14 melanoma, 72.1 µM; in the test with MDA-MB-231 breast, 47.8 µM; in the test on K-562 leukemia, above 100 µM. Besides, the TGI with SK-OV-3 ovarian was above 100 µM; in the test with HT29 colon, 57.7 µM; in the test with HOP-62 NSCLC, 47.7 µM.
As for `COc1cc(C2c3cc4c(cc3[C@H](NC(=O)c3cccs3)C3COC(=O)[C@H]23)OCO4)cc(OC)c1OC` (stereo partly specified), the TGI is 0.708 µM in the test on SK-MEL-5 melanoma; 0.0308 µM with COLO 205 colon; below 0.0141 µM in the test on SF-539 CNS; 33.7 µM in the test with M14 melanoma; 0.0128 µM in the test on MDA-MB-231 breast; above 37.8 µM in the test with K-562 leukemia. For the same compound, the TGI in the test with SK-OV-3 ovarian was above 100 µM; with HT29 colon it was 11.2 µM.
`O=C1OC(c2ccccc2)C2CC3CC4(CCC3CN12)OCCO4` (stereo unspecified): the TGI in the test with SK-MEL-5 melanoma, with COLO 205 colon, in the test on SF-539 CNS, in the test with NCI-H226 lung, with M14 melanoma and in the test with K-562 leukemia was above 100 µM in each case. Also, the TGI in the test on SK-OV-3 ovarian, with HT29 colon and in the test with HOP-62 NSCLC was above 100 µM throughout.
